Data reported in ChEMBL document CHEMBL1255373, “In vitro antibacterial activity of CE-156811, a novel analog derived from hygromycin A” (2008).
Values after ≈ are worked out from the molar mass of the structure shown.

Legend:
Type in all cases: functional
Citrobacter freundii = assay: Antibacterial activity against Citrobacter freundii clinical isolate by broth microdilution method
Klebsiella pneumoniae [1] = assay: Antibacterial activity against Klebsiella pneumoniae clinical isolate by broth microdilution method
Enterobacter cloacae = assay: Antibacterial activity against Enterobacter cloacae clinical isolate by broth microdilution method
Staphylococcus aureus [2] = assay: Antibacterial activity against methicillin-susceptible Staphylococcus aureus clinical isolate by broth microdilution method
Klebsiella oxytoca = assay: Antibacterial activity against Klebsiella oxytoca clinical isolate by broth microdilution method
Streptococcus pneumoniae [3] = assay: Antibacterial activity against Streptococcus pneumoniae 02J1046 by broth microdilution method
Acinetobacter sp. = assay: Antibacterial activity against Acinetobacter sp. by broth microdilution method
Enterococcus faecalis [4] = assay: Antibacterial activity against vancomycin-susceptible Enterococcus faecalis clinical isolate by broth microdilution method
Enterococcus faecalis [5] = assay: Antibacterial activity against […] Enterococcus faecalis ATCC 29212 by broth microdilution method
Escherichia coli = assay: Antibacterial activity against Escherichia coli clinical isolate by broth microdilution method
Streptococcus pneumoniae [6] = assay: Antibacterial activity against penicillin-nonsusceptible Streptococcus pneumoniae clinical isolate by broth microdilution method
Serratia marcescens = assay: Antibacterial activity against Serratia marcescens clinical isolate by broth microdilution method
Staphylococcus aureus [7] = assay: Antibacterial activity against methicillin-resistant Staphylococcus aureus clinical isolate by broth microdilution method
Legionella pneumophila = assay: Antibacterial activity against Legionella pneumophila clinical isolate by broth microdilution method
Staphylococcus aureus [8] = assay: Antibacterial activity against […] Staphylococcus aureus ATCC 29213 by broth microdilution method
Streptococcus pneumoniae [9] = assay: Bacteriostatic activity against Streptococcus pneumoniae 02J1046 assessed as log reduction in bacterial growth at 1 to 8 times MIC after 24 hrs
Enterococcus faecalis [10] = assay: Antibacterial activity against vancomycin-resistant Enterococcus faecalis clinical isolate by broth microdilution method
Haemophilus influenzae = assay: Antibacterial activity against Haemophilus influenzae clinical isolate by broth microdilution method
Enterococcus faecalis [11] = assay: Antibacterial activity against linezolid-resistant Enterococcus faecalis 03A1128 by broth microdilution method
Staphylococcus aureus [12] = assay: Antibacterial activity against glycopeptide-intermediate Staphylococcus aureus clinical isolate by broth microdilution method
Staphylococcus aureus [13] = assay: Antibacterial activity against linezolid-resistant Staphylococcus aureus 01A1220 by broth microdilution method
Moraxella catarrhalis = assay: Antibacterial activity against Moraxella catarrhalis clinical isolate by broth microdilution method
Klebsiella pneumoniae [14] = assay: Antibacterial activity against extended-spectrum beta-lactamase producing Klebsiella pneumoniae clinical isolate by broth microdilution method
Streptococcus pneumoniae [15] = assay: Antibacterial activity against penicillin-susceptible Streptococcus pneumoniae clinical isolate by broth microdilution method
Listeria monocytogenes = assay: Antibacterial activity against Listeria monocytogenes clinical isolate by broth microdilution method
Providencia rettgeri = assay: Antibacterial activity against Providencia rettgeri clinical isolate by broth microdilution method
Enterococcus faecium [16] = assay: Antibacterial activity against linezolid-resistant Enterococcus faecium 03B1078 by broth microdilution method
Staphylococcus aureus [17] = assay: Antibacterial activity against linezolid-resistant Staphylococcus aureus 01A1221 by broth microdilution method
Enterococcus faecium [18] = assay: Antibacterial activity against linezolid-resistant Enterococcus faecium 03B1073 by broth microdilution method
Enterococcus faecium [19] = assay: Antibacterial activity against vancomycin-resistant Enterococcus faecium 03B1022 by broth microdilution method
Staphylococcus aureus [20] = assay: Bacteriostatic activity against methicillin-resistant Staphylococcus aureus 01A1095 assessed as log reduction in bacterial growth at 1 to 8 times MIC after 24 hrs
Klebsiella aerogenes = assay: Antibacterial activity against Enterobacter aerogenes clinical isolate by broth microdilution method
Enterococcus faecium [21] = assay: Antibacterial activity against vancomycin-susceptible Enterococcus faecium clinical isolate by broth microdilution method
Citrobacter koseri = assay: Antibacterial activity against Citrobacter diversus clinical isolate by broth microdilution method
Morganella morganii = assay: Antibacterial activity against Morganella morganii clinical isolate by broth microdilution method
Enterococcus faecium [22] = assay: Antibacterial activity against linezolid-resistant Enterococcus faecium 03B1077 by broth microdilution method
Proteus mirabilis = assay: Antibacterial activity against Proteus mirabilis clinical isolate by broth microdilution method
[23] = test system: Stenotrophomonas maltophilia; assay: Antibacterial activity against Stenotrophomonas maltophilia clinical isolate by broth microdilution method
Enterococcus faecium [24] = assay: Antibacterial activity against linezolid-resistant Enterococcus faecium 03B1076 by broth microdilution method
[25] = test system: Staphylococcus epidermidis; assay: Antibacterial activity against methicillin-susceptible Staphylococcus epidermidis clinical isolate by broth microdilution method
Salmonella sp. = assay: Antibacterial activity against Salmonella sp. by broth microdilution method
Shigella sp. = assay: Antibacterial activity against Shigella sp. by broth microdilution method
Proteus vulgaris = assay: Antibacterial activity against Proteus vulgaris clinical isolate by broth microdilution method
Enterococcus faecium [26] = assay: Antibacterial activity against linezolid-resistant Enterococcus faecium 03B1074 by broth microdilution method
Staphylococcus = assay: Antibacterial activity against coagulase-negative Staphylococcus clinical isolate by broth microdilution method
Enterococcus faecium [27] = assay: Antibacterial activity against linezolid-resistant Enterococcus faecium 03B1075 by broth microdilution method
Corynebacterium sp. = assay: Antibacterial activity against Corynebacterium sp. by broth microdilution method
Staphylococcus aureus [28] = assay: Antibacterial activity against methicillin-resistant Staphylococcus aureus 01A1095 by broth microdilution method
Streptococcus pyogenes [29] = assay: Antibacterial activity against Streptococcus pyogenes 02C0203 by broth microdilution method
Enterococcus faecium [30] = assay: Bacteriostatic activity against vancomycin resistant Enterococcus faecium 03B1022 assessed as log reduction in bacterial growth at 1 to 8 times MIC after 24 hrs
Pseudomonas aeruginosa = assay: Antibacterial activity against Pseudomonas aeruginosa clinical isolate by broth microdilution method
Neisseria sp. = assay: Antibacterial activity against Neisseria sp. by broth microdilution method
Streptococcus pyogenes [31] = assay: Antibacterial activity against Streptococcus pyogenes clinical isolate by broth microdilution method
Streptococcus pyogenes [32] = assay: Bacteriostatic activity against Streptococcus pyogenes 02C0203 assessed as log reduction in bacterial growth at 1 to 8 times MIC after 24 hrs
Enterococcus faecium [33] = assay: Antibacterial activity against vancomycin-resistant Enterococcus faecium clinical isolate by broth microdilution method
Burkholderia cepacia = assay: Antibacterial activity against Burkholderia cepacia clinical isolate by broth microdilution method

C/C(=C\c1cc(F)c(OC[C@H](F)C2CC2)cc1F)C(=O)N[C@@H]1[C@H](O)[C@@H](O)[C@H]2OCO[C@H]2[C@@H]1O
MIC50 (Citrobacter freundii): > 64 µg/mL | MIC90 (Citrobacter freundii): > 64 µg/mL | MIC50 (Klebsiella pneumoniae [1]): > 64 µg/mL | MIC90 (Klebsiella pneumoniae [1]): > 64 µg/mL | MIC50 (Enterobacter cloacae): > 64 µg/mL | MIC90 (Enterobacter cloacae): > 64 µg/mL | MIC50 (Staphylococcus aureus [2]): 0.5 µg/mL (≈ 1.06 µM) | MIC90 (Staphylococcus aureus [2]): 1 µg/mL (≈ 2.11 µM) | MIC50 (Klebsiella oxytoca): > 64 µg/mL | MIC90 (Klebsiella oxytoca): > 64 µg/mL | MIC (Streptococcus pneumoniae [3]): 0.125 µg/mL (≈ 0.264 µM) | MIC50 (Acinetobacter sp.): > 64 µg/mL | MIC90 (Acinetobacter sp.): > 64 µg/mL | MIC50 (Enterococcus faecalis [4]): 1 µg/mL (≈ 2.11 µM) | MIC90 (Enterococcus faecalis [4]): 2 µg/mL (≈ 4.22 µM) | MIC (Enterococcus faecalis [5]): 1 µg/mL (≈ 2.11 µM) | MIC50 (Escherichia coli): > 64 µg/mL | MIC90 (Escherichia coli): > 64 µg/mL | MIC50 (Streptococcus pneumoniae [6]): 0.25 µg/mL (≈ 0.528 µM) | MIC90 (Streptococcus pneumoniae [6]): 0.5 µg/mL (≈ 1.06 µM) | MIC50 (Serratia marcescens): > 64 µg/mL | MIC90 (Serratia marcescens): > 64 µg/mL | MIC50 (Staphylococcus aureus [7]): 0.5 µg/mL (≈ 1.06 µM) | MIC90 (Staphylococcus aureus [7]): 0.5 µg/mL (≈ 1.06 µM) | MIC50 (Legionella pneumophila): 1 µg/mL (≈ 2.11 µM) | MIC90 (Legionella pneumophila): 2 µg/mL (≈ 4.22 µM) | MIC (Staphylococcus aureus [8]): 1 µg/mL (≈ 2.11 µM) | FC (Streptococcus pneumoniae [9]): 1.5 | MIC50 (Enterococcus faecalis [10]): 1 µg/mL (≈ 2.11 µM) | MIC90 (Enterococcus faecalis [10]): 2 µg/mL (≈ 4.22 µM) | MIC50 (Haemophilus influenzae): 4 µg/mL (≈ 8.45 µM) | MIC90 (Haemophilus influenzae): 8 µg/mL (≈ 16.9 µM) | MIC (Enterococcus faecalis [11]): 16 µg/mL (≈ 33.8 µM) | MIC (Staphylococcus aureus [12]): 0.125 µg/mL (≈ 0.264 µM) | MIC (Staphylococcus aureus [13]): 16 µg/mL (≈ 33.8 µM) | MIC50 (Moraxella catarrhalis): 2 µg/mL (≈ 4.22 µM) | MIC90 (Moraxella catarrhalis): 4 µg/mL (≈ 8.45 µM) | MIC50 (Klebsiella pneumoniae [14]): > 64 µg/mL | MIC90 (Klebsiella pneumoniae [14]): > 64 µg/mL | MIC50 (Streptococcus pneumoniae [15]): 0.25 µg/mL (≈ 0.528 µM) | MIC90 (Streptococcus pneumoniae [15]): 0.5 µg/mL (≈ 1.06 µM) | MIC (Listeria monocytogenes): 4 µg/mL (≈ 8.45 µM) | MIC50 (Listeria monocytogenes): 4 µg/mL (≈ 8.45 µM) | MIC90 (Listeria monocytogenes): 8 µg/mL (≈ 16.9 µM) | MIC50 (Providencia rettgeri): > 64 µg/mL | MIC90 (Providencia rettgeri): > 64 µg/mL | MIC (Enterococcus faecium [16]): 4 µg/mL (≈ 8.45 µM) | MIC (Staphylococcus aureus [17]): 16 µg/mL (≈ 33.8 µM) | MIC (Enterococcus faecium [18]): 1 µg/mL (≈ 2.11 µM) | MIC (Enterococcus faecium [19]): 1 µg/mL (≈ 2.11 µM) | FC (Staphylococcus aureus [20]): 1.5 | MIC50 (Klebsiella aerogenes): > 64 µg/mL | MIC90 (Klebsiella aerogenes): > 64 µg/mL | MIC50 (Enterococcus faecium [21]): 1 µg/mL (≈ 2.11 µM) | MIC90 (Enterococcus faecium [21]): 2 µg/mL (≈ 4.22 µM) | MIC50 (Citrobacter koseri): > 64 µg/mL | MIC90 (Citrobacter koseri): > 64 µg/mL | MIC50 (Morganella morganii): > 64 µg/mL | MIC90 (Morganella morganii): > 64 µg/mL | MIC (Enterococcus faecium [22]): 2 µg/mL (≈ 4.22 µM) | MIC50 (Proteus mirabilis): > 64 µg/mL | MIC90 (Proteus mirabilis): > 64 µg/mL | MIC50 [23]: > 64 µg/mL | MIC90 [23]: > 64 µg/mL | MIC (Enterococcus faecium [24]): 8 µg/mL (≈ 16.9 µM) | MIC50 [25]: 0.12 µg/mL (≈ 0.253 µM) | MIC90 [25]: 0.25 µg/mL (≈ 0.528 µM) | MIC50 (Salmonella sp.): > 64 µg/mL | MIC90 (Salmonella sp.): > 64 µg/mL | MIC50 (Shigella sp.): > 64 µg/mL | MIC90 (Shigella sp.): > 64 µg/mL | MIC50 (Proteus vulgaris): > 64 µg/mL | MIC90 (Proteus vulgaris): > 64 µg/mL | MIC (Enterococcus faecium [26]): 4 µg/mL (≈ 8.45 µM) | MIC50 (Staphylococcus): 1 µg/mL (≈ 2.11 µM) | MIC90 (Staphylococcus): 2 µg/mL (≈ 4.22 µM) | MIC (Enterococcus faecium [27]): 4 µg/mL (≈ 8.45 µM) | MIC50 (Corynebacterium sp.): 1 µg/mL (≈ 2.11 µM) | MIC90 (Corynebacterium sp.): 1 µg/mL (≈ 2.11 µM) | MIC (Staphylococcus aureus [28]): 1 µg/mL (≈ 2.11 µM) | MIC (Streptococcus pyogenes [29]): 0.25 µg/mL (≈ 0.528 µM) | FC (Enterococcus faecium [30]): 1.5 | MIC50 (Pseudomonas aeruginosa): > 64 µg/mL | MIC90 (Pseudomonas aeruginosa): > 64 µg/mL | MIC50 (Neisseria sp.): 4 µg/mL (≈ 8.45 µM) | MIC90 (Neisseria sp.): 8 µg/mL (≈ 16.9 µM) | MIC (Streptococcus pyogenes [31]): 0.5 µg/mL (≈ 1.06 µM) | MIC50 (Streptococcus pyogenes [31]): 0.5 µg/mL (≈ 1.06 µM) | MIC90 (Streptococcus pyogenes [31]): 1 µg/mL (≈ 2.11 µM) | FC (Streptococcus pyogenes [32]): 1.5 | MIC50 (Enterococcus faecium [33]): 1 µg/mL (≈ 2.11 µM) | MIC90 (Enterococcus faecium [33]): 2 µg/mL (≈ 4.22 µM) | MIC50 (Burkholderia cepacia): > 64 µg/mL | MIC90 (Burkholderia cepacia): > 64 µg/mL
